According to US8404679B2, “Pyrrolidine derivatives as NK2 receptor antagonists” (Hoffmann-La Roche Inc., priority 2008, dated 2013):

Target: T1, human NK2 receptor (Homo sapiens, UniProt P21452)
T1 construct: purchased Perkin Elmer biosignal Inc. 6110510
T1 sequence (P21452 1-398): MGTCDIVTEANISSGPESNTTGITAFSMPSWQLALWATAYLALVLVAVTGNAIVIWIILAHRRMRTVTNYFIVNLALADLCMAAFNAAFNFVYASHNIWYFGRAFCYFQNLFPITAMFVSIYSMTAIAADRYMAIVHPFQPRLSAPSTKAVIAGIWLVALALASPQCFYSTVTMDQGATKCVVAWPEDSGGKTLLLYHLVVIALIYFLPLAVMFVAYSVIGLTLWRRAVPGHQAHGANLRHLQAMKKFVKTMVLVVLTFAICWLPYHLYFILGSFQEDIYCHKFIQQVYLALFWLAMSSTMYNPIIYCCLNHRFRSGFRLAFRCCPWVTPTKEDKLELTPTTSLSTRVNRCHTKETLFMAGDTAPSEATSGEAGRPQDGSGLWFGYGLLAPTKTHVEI
Experiment: [3H]SR48968 competition binding assay
Settings: [3H]SR48968 displacement, membranes of CHO cells stably expressing recombinant human NK2 receptor; Ki from IC50 by Cheng-Prussoff
Summary of the method: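 Membranes from CHO cells stably expressing recombinant human NK2 were incubated 75 min at RT with [3H]SR48968 at its KD and 10 compound concentrations (0.0003–10 μM) in Tris-HCl pH 7.4, MnCl2, chymostatin, BSA. Filter-bound radioactivity was counted; Hill-fitted IC50 converted to Ki via Cheng-Prusoff.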

Compound	Ki
CCS(=O)(=O)N1CCC(C(=O)N2C[C@H](c3ccc(Cl)c(Cl)c3)[C@@H](N(C)C(=O)c3ccc(OC)c(C(F)(F)F)c3)C2)CC1 (racemic) [Example 140, N-[(3RS,4SR)-4-(3,4-Dichloro-phenyl)-1-(1-ethanesulfonyl-piperidine-4-carbonyl)-pyrrolidin-3-yl]-4-methoxy-N-methyl-3-trifluoromethyl-benzamide]	0.7 nM
COc1ccc(C(=O)N(C)[C@H]2CN(C(=O)C3CCN(S(=O)(=O)C4CC4)CC3)C[C@@H]2c2ccc(Cl)c(Cl)c2)cc1C(F)(F)F (racemic) [Example 141, N-[(3RS,4SR)-1-(1-Cyclopropanesulfonyl-piperidine-4-carbonyl)-4-(3,4-dichloro-phenyl)-pyrrolidin-3-yl]-4-methoxy-N-methyl-3-trifluoromethyl-benzamide]	0.7 nM
COc1ccc(C(=O)N(C)[C@H]2CN(C(=O)C3CCN(CCC#N)CC3)C[C@@H]2c2ccc(Cl)c(Cl)c2)cc1C(F)(F)F (racemic) [Example 142, N-[(3RS,4SR)-1-[1-(2-Cyano-ethyl)-piperidine-4-carbonyl]-4-(3,4-dichloro-phenyl)-pyrrolidin-3-yl]-4-methoxy-N-methyl-3-trifluoromethyl-benzamide]	0.4 nM
CN(C(=O)Cc1ccc(F)cc1)C1CN(C(=O)C2CCN(CC3CC3)CC2)CC1c1ccc(Cl)c(Cl)c1 (racemic) [Example 143, N-[(3RS,4RS)-1-(1-Cyclopropylmethyl-piperidine-4-carbonyl)-4-(3,4-dichloro-phenyl)-pyrrolidin-3-yl]-2-(4-fluoro-phenyl)-N-methyl-acetamide]	26.9 nM
COCCN1CCC(C(=O)N2C[C@H](c3ccc(Cl)c(Cl)c3)[C@@H](N(C)C(=O)c3ccc(OC)c(C(F)(F)F)c3)C2)CC1 (racemic) [Example 144, N-{(3RS,4SR)-4-(3,4-Dichloro-phenyl)-1-[1-(2-methoxy-ethyl)-piperidine-4-carbonyl]-pyrrolidin-3-yl}-4-methoxy-N-methyl-3-trifluoromethyl-benzamide]	0.9 nM
CCOC(=O)N1CCC(C(=O)N2C[C@H](c3ccc(Cl)c(Cl)c3)[C@@H](N(C)C(=O)c3ccc(OC)c(C(F)(F)F)c3)C2)CC1 (racemic) [Example 145, 4-{(3SR,4RS)-3-(3,4-Dichloro-phenyl)-4-[(4-methoxy-3-trifluoromethyl-benzoyl)-methyl-amino]-pyrrolidine-1-carbonyl}-piperidine-1-carboxylic acid ethyl ester]	1.1 nM
COc1ccc(C(=O)N(C)[C@H]2CN(C(=O)c3ccc(-c4nc(C)no4)cc3)C[C@@H]2c2ccc(Cl)c(Cl)c2)cc1C(F)(F)F (racemic) [Example 147, N-{(3RS,4SR)-4-(3,4-Dichloro-phenyl)-1-[4-(3-methyl-[1,2,4]oxadiazol-5-yl)-benzoyl]-pyrrolidin-3-yl}-4-methoxy-N-methyl-3-trifluoromethyl-benzamide]	1.4 nM
C=C(F)CN1CCC(C(=O)N2C[C@H](c3ccc(Cl)c(Cl)c3)[C@@H](N(C)C(=O)c3ccc(OC)c(C(F)(F)F)c3)C2)CC1 (racemic) [Example 148, N-{(3RS,4SR)-4-(3,4-Dichloro-phenyl)-1-[1-(2-fluoro-allyl)-piperidine-4-carbonyl]-pyrrolidin-3-yl}-4-methoxy-N-methyl-3-trifluoromethyl-benzamide]	0.5 nM
CN(C(=O)Cc1ccc(F)c(F)c1)[C@H]1CN(C(=O)C2CCN(CC3CC3)CC2)C[C@@H]1c1ccc(Cl)c(Cl)c1 (racemic) [Example 150, N-[(3RS,4SR)-1-(1-Cyclopropylmethyl-piperidine-4-carbonyl)-4-(3,4-dichloro-phenyl)-pyrrolidin-3-yl]-2-(3,4-difluoro-phenyl)-N-methyl-acetamide]	19.8 nM
CN(C(=O)CC1CCCC1)[C@H]1CN(C(=O)C2CCN(CC3CC3)CC2)C[C@@H]1c1ccc(Cl)c(Cl)c1 (racemic) [Example 151, 2-Cyclopentyl-N-[(3RS,4SR)-1-(1-cyclopropylmethyl-piperidine-4-carbonyl)-4-(3,4-dichloro-phenyl)-pyrrolidin-3-yl]-N-methyl-acetamide]	6.7 nM
CN(C(=O)Cc1cccc(F)c1F)[C@H]1CN(C(=O)C2CCN(CC3CC3)CC2)C[C@@H]1c1ccc(Cl)c(Cl)c1 (racemic) [Example 152, N-[(3RS,4SR)-1-(1-Cyclopropylmethyl-piperidine-4-carbonyl)-4-(3,4-dichloro-phenyl)-pyrrolidin-3-yl]-2-(2,3-difluoro-phenyl)-N-methyl-acetamide]	23 nM
CN(C(=O)Cc1ccc(Cl)cc1)[C@H]1CN(C(=O)C2CCN(CC3CC3)CC2)C[C@@H]1c1ccc(Cl)c(Cl)c1 (racemic) [Example 158, 2-(4-Chloro-phenyl)-N-[(3RS,4SR)-1-(1-cyclopropylmethyl-piperidine-4-carbonyl)-4-(3,4-dichloro-phenyl)-pyrrolidin-3-yl]-N-methyl-acetamide]	25.4 nM
CC(C(=O)N(C)[C@H]1CN(C(=O)C2CCN(CC3CC3)CC2)C[C@@H]1c1ccc(Cl)c(Cl)c1)c1ccc(F)cc1 (mixture of isomers) [Example 159, N-[(3RS,4SR)-1-(1-Cyclopropylmethyl-piperidine-4-carbonyl)-4-(3,4-dichloro-phenyl)-pyrrolidin-3-yl]-2-(4-fluoro-phenyl)-N-methyl-propionamide]	43.3 nM
CN(C(=O)c1ccc(Cl)c(C(F)(F)F)c1)[C@H]1CN(C(=O)C2CCNCC2)C[C@@H]1c1ccc(Cl)cc1 (racemic) [Example 160, 4-Chloro-N-[(3RS,4SR)-4-(4-chloro-phenyl)-1-(piperidine-4-carbonyl)-pyrrolidin-3-yl]-N-methyl-3-trifluoromethyl-benzamide]	5 nM
CN(C(=O)c1ccc(Cl)c(C(F)(F)F)c1)[C@H]1CN(C(=O)C2CCN(S(=O)(=O)C3CC3)CC2)C[C@@H]1c1ccc(Cl)cc1 (racemic) [Example 161, 4-Chloro-N-[(3RS,4SR)-4-(4-chloro-phenyl)-1-(1-cyclopropanesulfonyl-piperidine-4-carbonyl)-pyrrolidin-3-yl]-N-methyl-3-trifluoromethyl-benzamide]	1.7 nM
CN(C(=O)c1ccc(Cl)c(C(F)(F)F)c1)[C@H]1CN(C(=O)C2CCN(C3CCOCC3)CC2)C[C@@H]1c1ccc(Cl)cc1 (racemic) [Example 162, 4-Chloro-N-{(3RS,4SR)-4-(4-chloro-phenyl)-1-[1-(tetrahydro-pyran-4-yl)-piperidine-4-carbonyl]-pyrrolidin-3-yl}-N-methyl-3-trifluoromethyl-benzamide]	0.4 nM
CN(C(=O)c1ccc(Cl)c(C(F)(F)F)c1)[C@H]1CN(C(=O)C2CCN(CC#N)CC2)C[C@@H]1c1ccc(Cl)cc1 (racemic) [Example 163, 4-Chloro-N-[(3RS,4SR)-4-(4-chloro-phenyl)-1-(1-cyanomethyl-piperidine-4-carbonyl)-pyrrolidin-3-yl]-N-methyl-3-trifluoromethyl-benzamide]	3.7 nM
CN(C(=O)c1ccc(Cl)c(C(F)(F)F)c1)[C@H]1CN(C(=O)C2CCN(CC3CC3)CC2)C[C@@H]1c1ccc(Cl)c(Cl)c1 (racemic) [Example 164, 4-Chloro-N-[(3RS,4SR)-1-(1-cyclopropylmethyl-piperidine-4-carbonyl)-4-(3,4-dichloro-phenyl)-pyrrolidin-3-yl]-N-methyl-3-trifluoromethyl-benzamide]	0.5 nM
CN(C(=O)c1ccc(Cl)c(C(F)(F)F)c1)[C@H]1CN(C(=O)C2CCN(CCC#N)CC2)C[C@@H]1c1ccc(Cl)cc1 (racemic) [Example 165, 4-Chloro-N-{(3RS,4SR)-4-(4-chloro-phenyl)-1-[1-(2-cyano-ethyl)-piperidine-4-carbonyl]-pyrrolidin-3-yl}-N-methyl-3-trifluoromethyl-benzamide]	1.3 nM
CN(C(=O)c1cc(C(F)(F)F)ccn1)[C@H]1CN(C(=O)C2CCN(C(=O)C3(C)CC3)CC2)C[C@@H]1c1ccc(Cl)c(Cl)c1 (racemic) [Example 166, 4-Trifluoromethyl-pyridine-2-carboxylic acid {(3RS,4SR)-4-(3,4-dichloro-phenyl)-1-[1-(1-methyl-cyclopropanecarbonyl)-piperidine-4-carbonyl]-pyrrolidin-3-yl}-methyl-amide]	0.7 nM
CN(C(=O)c1ccc(Cl)c(Br)c1)[C@H]1CN(C(=O)C2CCN(C(=O)C3(C)CC3)CC2)C[C@@H]1c1ccc(Cl)c(Cl)c1 (racemic) [Example 171, 3-Bromo-4-chloro-N-{(3RS,4SR)-4-(3,4-dichloro-phenyl)-1-[1-(1-methyl-cyclopropanecarbonyl)-piperidine-4-carbonyl]-pyrrolidin-3-yl}-N-methyl-benzamide]	0.8 nM
CN(C(=O)c1ccc(Cl)c(C2CC2)c1)[C@H]1CN(C(=O)C2CCN(C(=O)C3(C)CC3)CC2)C[C@@H]1c1ccc(Cl)c(Cl)c1 (racemic) [Example 173, 4-Chloro-3-cyclopropyl-N-{(3RS,4SR)-4-(3,4-dichloro-phenyl)-1-[1-(1-methyl-cyclopropanecarbonyl)-piperidine-4-carbonyl]-pyrrolidin-3-yl}-N-methyl-benzamide]	1.7 nM
CCc1cc(C(=O)N(C)[C@H]2CN(C(=O)C3CCN(C(=O)C4(C)CC4)CC3)C[C@@H]2c2ccc(Cl)c(Cl)c2)ccc1Cl (racemic) [Example 174, 4-Chloro-N-{(3RS,4SR)-4-(3,4-dichloro-phenyl)-1-[1-(1-methyl-cyclopropanecarbonyl)-piperidine-4-carbonyl]-pyrrolidin-3-yl}-3-ethyl-N-methyl-benzamide]	0.9 nM
